The source made the active and inactive calls. The rule behind the calls is not given here.

The target in the first assay is T1, RAC-alpha serine/threonine-protein kinase (Homo sapiens, UniProt P31749). Put plainly: Inhibition of PKB activation in human overnight starved MCF7 cells assessed as phosphorylated Akt at Ser473 level at 50 ug/ml after 1 hr followed by treated with 1 ug/mL of insulin for 15 mins by Western blotting.
T1 sequence (P31749 whole entry): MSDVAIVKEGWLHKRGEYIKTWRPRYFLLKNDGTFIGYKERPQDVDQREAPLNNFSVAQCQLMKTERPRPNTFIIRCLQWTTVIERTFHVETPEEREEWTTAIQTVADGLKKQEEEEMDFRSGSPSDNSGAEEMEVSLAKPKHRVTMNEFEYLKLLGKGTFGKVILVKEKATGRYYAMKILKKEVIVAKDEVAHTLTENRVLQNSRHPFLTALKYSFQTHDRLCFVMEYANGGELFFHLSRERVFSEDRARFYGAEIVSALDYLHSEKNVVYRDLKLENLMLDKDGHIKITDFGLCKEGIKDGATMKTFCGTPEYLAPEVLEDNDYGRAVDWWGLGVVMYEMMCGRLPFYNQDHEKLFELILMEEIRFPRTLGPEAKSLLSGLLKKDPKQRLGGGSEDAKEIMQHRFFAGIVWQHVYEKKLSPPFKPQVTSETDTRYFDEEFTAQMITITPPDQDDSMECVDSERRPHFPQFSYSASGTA
For the molecule `CCc1ccc(Cc2cc(CCCl)ccc2OC(C)=O)c(OC(C)=O)c1`, the “inhibition of PKB activation (active/not active)” value (shortened to “inhibition … (active/not active)”) is “Active”.

With `CCc1ccc(OC(C)=O)c(Cc2ccccc2OC(C)=O)c1`, the “inhibition … (active/not active)” value is “inactive”.

Turning to `CC(=O)Oc1ccccc1Cc1cc(CCCl)ccc1OC(C)=O`, the “inhibition … (active/not active)” value is “Active”.

Take `CCc1ccc(OC(C)=O)c(Cc2cc(CCCl)ccc2OC(C)=O)c1`: the “inhibition … (active/not active)” value was “Active”.

For `CC(=O)Oc1ccccc1Cc1ccccc1OC(C)=O`, the “inhibition … (active/not active)” value is “inactive”.

For `CCc1ccc(OC(C)=O)c(Cc2cc(CC)ccc2OC(C)=O)c1`, the “inhibition … (active/not active)” value is “Active”.

For a further assay, the target named is T1, RAC-alpha serine/threonine-protein kinase. Put plainly: Inhibition of PKB/Akt activation in human overnight starved MCF7 cells assessed as phosphorylated Akt at Ser473 level at 50 ug/ml after 1 hr followed by treated with 1 ug/mL of insulin for 15 mins by Western blotting. The assay is classed as cell-based.
Regarding `CCc1ccc(OC(C)=O)c(Cc2cc(CCCl)ccc2OC(C)=O)c1`, the IC50 worked out at 25 µM.

For the origin of these results see ChEMBL document CHEMBL1250440, “Development of chemical probes: toward the mode of action of a methylene-linked di(aryl acetate) E1” (Bioorg Med Chem, 2010).
